Measurements as given in patent US20230114728A1 (Venatorx Pharmaceuticals, Inc., priority 2019, published 2023).
Converted amounts (≈) assume the structure as drawn. Like-named read-outs stand apart in the source and are kept apart here.

Experiments:
Assay type in all cases: cell-based
A. baumannii ATCC 19606 = assay: Broth microdilution MIC in CAMHB; conditions: Acinetobacter baumannii, ATCC19606; MHB; read-out: Minimum Inhibitory Concentration, A. baumannii ATCC 19606
Procedure, shortened: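 Lowest compound concentration with no visible growth after 16-20 h at 37 °C defines MIC. Plates of 2-fold serial dilutions in cation-adjusted Mueller Hinton broth received 2-8×10^5 CFU/mL of exponentially grown cells, per CLSI methods; panel spans reference, hyper-permeable and efflux-pump-deleted strains.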

E. coli 901C = assay: Broth microdilution MIC in CAMHB; conditions: Escherichia coli; E. coli 901C (hyper-permeable); MHB; read-out: Minimum Inhibitory Concentration, E. coli 901C
Procedure, shortened: (§1)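 CLSI broth microdilution in CAMHB: 2-fold compound dilutions inoculated at 2-8×10^5 CFU/mL from 3-5 h log-phase cultures. Incubated at 37 °C for 16-20 h (Enterobacteriaceae, Pseudomonas); MIC read visually as lowest concentration without growth. Strains include hyper-permeable and efflux-deficient mutants.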

[1] = test system: K. pneumoniae SI-117 producing VIM-1; assay: Broth microdilution MIC in CAMHB; conditions: Klebsiella pneumoniae, read-out: Minimum Inhibitory Concentration, K. pneumoniae SI-117
Procedure, shortened: as §1

P. aeruginosa ATCC 35151 = assay: Broth microdilution MIC in CAMHB; conditions: Pseudomonas aeruginosa, ATCC35151; MHB; hyper-permeable strain; read-out: Minimum Inhibitory Concentration, P. aeruginosa ATCC 35151
Procedure, shortened: as §1

[2] = test system: N. gonorrhoeae ATCC 49226; assay: Liquid broth MIC in Fastidious broth; conditions: Neisseria gonorrhoeae, ATCC49226, Fastidious broth
Procedure, shortened: (§2)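 Colonies were swabbed from chocolate agar after 24 h growth and standardised by optical density at 600 nm. Compounds were serially diluted twofold in Fastidious broth, and bacteria added to give 5×10^5 CFU/mL. After about 24 h at 36 °C in 5% CO2, the lowest concentration allowing under 10% growth was taken as MIC.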

N. gonorrhoeae FA1090 = assay: Liquid broth MIC in Fastidious broth; conditions: Neisseria gonorrhoeae, Fastidious broth
Procedure, shortened: as §2

N. gonorrhoeae H041 = assay: Liquid broth MIC in Fastidious broth; conditions: Neisseria gonorrhoeae
Procedure, shortened: (§3)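 Strains bearing mosaic PBP2 grown 24 h on chocolate agar (36° C, 5% CO2), suspended in saline and added to 2-fold compound dilutions in Fastidious broth at 5×10^5 CFU/mL. After ~24 hours at 36° C with 5% CO2, MIC taken visually as lowest well with <10% growth relative to full growth.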

N. gonorrhoeae WHO G = assay: Liquid broth MIC in Fastidious broth; conditions: Neisseria gonorrhoeae, Fastidious broth
Procedure, shortened: as §2

N. gonorrhoeae WHO K = assay: Liquid broth MIC in Fastidious broth; conditions: Neisseria gonorrhoeae
Procedure, shortened: as §3

N. gonorrhoeae WHO L = assay: Liquid broth MIC in Fastidious broth; conditions: Neisseria gonorrhoeae, Fastidious broth
Procedure, shortened: as §2

N. gonorrhoeae WHO Q = assay: Liquid broth MIC in Fastidious broth; conditions: Neisseria gonorrhoeae
Procedure, shortened: as §3

N. gonorrhoeae WHO Z = assay: Liquid broth MIC in Fastidious broth; conditions: Neisseria gonorrhoeae
Procedure, shortened: as §3

[3] = N. gonorrhoeae strain ATCC 49226, read-out: Minimum Inhibitory Concentration, N. gonorrhoeae ATCC 49226
[4] = N. gonorrhoeae strain FA1090, read-out: Minimum Inhibitory Concentration, N. gonorrhoeae FA1090
[5] = H041, read-out: Minimum Inhibitory Concentration, N. gonorrhoeae H041
[6] = N. gonorrhoeae strain WHO G, read-out: Minimum Inhibitory Concentration, N. gonorrhoeae WHO G
[7] = read-out: Minimum Inhibitory Concentration, N. gonorrhoeae WHO K
[8] = N. gonorrhoeae strain WHO L, read-out: Minimum Inhibitory Concentration, N. gonorrhoeae WHO L
[9] = read-out: Minimum Inhibitory Concentration, N. gonorrhoeae WHO Q
[10] = read-out: Minimum Inhibitory Concentration, N. gonorrhoeae WHO Z
[11] = N. gonorrhoeae ATCC 49226, read-out: Minimum Inhibitory Concentration, ATCC 49226
[12] = N. gonorrhoeae FA1090, read-out: Minimum Inhibitory Concentration, FA1090
[13] = H041, read-out: Minimum Inhibitory Concentration, H041
[14] = N. gonorrhoeae WHO G, read-out: Minimum Inhibitory Concentration, WHO G
[15] = read-out: Minimum Inhibitory Concentration, WHO K
[16] = N. gonorrhoeae WHO L, read-out: Minimum Inhibitory Concentration, WHO L
[17] = read-out: Minimum Inhibitory Concentration, WHO Q
[18] = read-out: Minimum Inhibitory Concentration, WHO Z

SMILES | MIC (A. baumannii ATCC 19606) [µg/mL] | MIC (E. coli 901C) [µg/mL] | MIC [1] [µg/mL] | MIC (P. aeruginosa ATCC 35151) [µg/mL] | MIC [2, 3] [µg/mL] | MIC (N. gonorrhoeae FA1090; [4]) [µg/mL] | MIC (N. gonorrhoeae H041; [5]) [µg/mL] | MIC (N. gonorrhoeae WHO G; [6]) [µg/mL] | MIC (N. gonorrhoeae WHO K; [7]) [µg/mL] | MIC (N. gonorrhoeae WHO L; [8]) [µg/mL] | MIC (N. gonorrhoeae WHO Q; [9]) [µg/mL] | MIC (N. gonorrhoeae WHO Z; [10]) [µg/mL] | MIC [2, 11] [µg/mL] | MIC (N. gonorrhoeae FA1090; [12]) [µg/mL] | MIC (N. gonorrhoeae H041; [13]) [µg/mL] | MIC (N. gonorrhoeae WHO G; [14]) [µg/mL] | MIC (N. gonorrhoeae WHO K; [15]) [µg/mL] | MIC (N. gonorrhoeae WHO L; [16]) [µg/mL] | MIC (N. gonorrhoeae WHO Q; [17]) [µg/mL] | MIC (N. gonorrhoeae WHO Z; [18]) [µg/mL]
CCN1CCN(C(=O)N[C@@H](C(=O)N[C@H]2Cc3cccc(C(=O)O)c3OB2O)c2c(O)cc(O)cc2F)C(=O)C1=O (single isomer, unassigned) [Example 182] | 32 to 64 (≈ 57.3 to 115 µM) | < 0.25 | 32 to 64 (≈ 57.3 to 115 µM) | 2 to 4 (≈ 3.58 to 7.16 µM) | 4 to 8 (≈ 7.16 to 14.3 µM) | < 0.125 | > 64 | 1 to 2 (≈ 1.79 to 3.58 µM) | 16 to 32 (≈ 28.7 to 57.3 µM) | 16 to 32 (≈ 28.7 to 57.3 µM) | 16 to 32 (≈ 28.7 to 57.3 µM) | 16 to 32 (≈ 28.7 to 57.3 µM) | – | – | – | – | – | – | – | –
NCCN1CCN(C(=O)N[C@@H](C(=O)N[C@H]2Cc3cccc(C(=O)O)c3OB2O)c2ccc(O)c(Cl)c2F)C(=O)C1=O (single isomer, unassigned) [Example 186] | > 128 | 0.5 to 1 (≈ 0.845 to 1.69 µM) | 32 to 64 (≈ 54.1 to 108 µM) | < 0.25 | 16 to 32 (≈ 27 to 54.1 µM) | 0.25 to 0.5 (≈ 0.422 to 0.845 µM) | > 64 | 4 to 8 (≈ 6.76 to 13.5 µM) | > 64 | > 64 | > 64 | > 64 | – | – | – | – | – | – | – | –
NCCN1CCN(C(=O)N[C@H](C(=O)N[C@H]2Cc3cccc(C(=O)O)c3OB2O)c2ccc(O)c(Cl)c2F)C(=O)C1=O (single isomer, unassigned) [Example 187] | > 128 | 2 to 4 (≈ 3.38 to 6.76 µM) | > 128 | 2 to 4 (≈ 3.38 to 6.76 µM) | > 64 | 4 to 8 (≈ 6.76 to 13.5 µM) | > 64 | > 64 | > 64 | > 64 | > 64 | > 64 | – | – | – | – | – | – | – | –
CS(=O)(=O)N1CCN(C(=O)N[C@@H](C(=O)N[C@H]2Cc3ccc(F)c(C(=O)O)c3OB2O)c2cc(F)c(O)c(O)c2Cl)C1=O (single isomer, unassigned) [Example 189] | 0.5 to 1 (≈ 0.79 to 1.58 µM) | 0.5 to 1 (≈ 0.79 to 1.58 µM) | 8 to 16 (≈ 12.6 to 25.3 µM) | 0.5 to 1 (≈ 0.79 to 1.58 µM) | 16 to 32 (≈ 25.3 to 50.6 µM) | 4 to 8 (≈ 6.32 to 12.6 µM) | > 64 | 16 to 32 (≈ 25.3 to 50.6 µM) | 16 to 32 (≈ 25.3 to 50.6 µM) | > 64 | 16 to 32 (≈ 25.3 to 50.6 µM) | 16 to 32 (≈ 25.3 to 50.6 µM) | – | – | – | – | – | – | – | –
NCCN1CCN(C(=O)N[C@@H](C(=O)N[C@H]2Cc3cccc(C(=O)O)c3OB2O)c2c(O)cc(O)cc2F)C(=O)C1=O (single isomer, unassigned) [Example 194] | 32 to 64 (≈ 55.8 to 112 µM) | 0.5 to 1 (≈ 0.872 to 1.74 µM) | 32 to 64 (≈ 55.8 to 112 µM) | 0.5 to 1 (≈ 0.872 to 1.74 µM) | 16 to 32 (≈ 27.9 to 55.8 µM) | 1 to 2 (≈ 1.74 to 3.49 µM) | > 64 | 4 to 8 (≈ 6.98 to 14 µM) | > 64 | > 64 | > 64 | > 64 | – | – | – | – | – | – | – | –
NCCCN1CCN(C(=O)N[C@@H](C(=O)N[C@H]2Cc3cccc(C(=O)O)c3OB2O)c2c(O)cc(O)cc2F)C(=O)C1=O (single isomer, unassigned) [Example 195] | 32 to 64 (≈ 54.5 to 109 µM) | 0.5 to 1 (≈ 0.851 to 1.7 µM) | 32 to 64 (≈ 54.5 to 109 µM) | 0.5 to 1 (≈ 0.851 to 1.7 µM) | 16 to 32 (≈ 27.2 to 54.5 µM) | 1 to 2 (≈ 1.7 to 3.41 µM) | > 64 | 4 to 8 (≈ 6.81 to 13.6 µM) | > 64 | > 64 | > 64 | > 64 | – | – | – | – | – | – | – | –
NCCN1CCN(C(=O)N[C@@H](C(=O)N[C@H]2Cc3cccc(C(=O)O)c3OB2O)c2ccc(O)c([N+](=O)[O-])c2)C(=O)C1=O (single isomer, unassigned) [Example 199] | > 128 | 0.5 to 1 (≈ 0.856 to 1.71 µM) | > 128 | 0.5 to 1 (≈ 0.856 to 1.71 µM) | 16 to 32 (≈ 27.4 to 54.8 µM) | 1 to 2 (≈ 1.71 to 3.42 µM) | > 64 | 16 to 32 (≈ 27.4 to 54.8 µM) | > 64 | > 64 | > 64 | > 64 | – | – | – | – | – | – | – | –
NCCN1CCN(C(=O)N[C@H](C(=O)N[C@H]2Cc3cccc(C(=O)O)c3OB2O)c2ccc(O)c([N+](=O)[O-])c2)C(=O)C1=O (single isomer, unassigned) [Example 200] | > 128 | 8 to 16 (≈ 13.7 to 27.4 µM) | > 128 | 2 to 4 (≈ 3.42 to 6.85 µM) | > 64 | 4 to 8 (≈ 6.85 to 13.7 µM) | > 64 | > 64 | > 64 | > 64 | > 64 | > 64 | – | – | – | – | – | – | – | –
CS(=O)(=O)N1CCN(C(=O)NC(C(=O)N[C@H]2Cc3ccc(F)c(C(=O)O)c3OB2O)c2c(Cl)cc(O)c(O)c2F)C1=O (stereo partly drawn) [Example 208, (3R)-3-(2-(6-chloro-2-fluoro-3,4-dihydroxyphenyl)-2-(3-(methylsulfonyl)-2-oxoimidazolidine-1-carboxamido)acetamido)-7-fluoro-2-hydroxy-3,4-dihydro-2H-benzo[e][1,2]oxaborinine-8-carboxylic acid] | – | – | – | – | – | – | – | – | – | – | – | – | > 64 | 4 to 8 (≈ 6.32 to 12.6 µM) | > 64 | 16 to 32 (≈ 25.3 to 50.6 µM) | > 64 | > 64 | > 64 | > 64
CCN1CCN(C(=O)N[C@H](C(=O)N[C@H]2Cc3ccc(F)c(C(=O)O)c3OB2O)c2ccc(O)c(O)c2)C(=O)C1=O [Example 210, (R)-3-((S)-2-(3,4-dihydroxyphenyl)-2-(4-ethyl-2,3-dioxopiperazine-1-carboxamido)acetamido)-7-fluoro-2-hydroxy-3,4-dihydro-2H-benzo[e][1,2]oxaborinine-8-carboxylic acid] | – | – | – | – | – | – | – | – | – | – | – | – | > 64 | > 64 | > 64 | > 64 | > 64 | > 64 | > 64 | > 64
CCN1CCN(C(=O)N[C@@H](C(=O)N[C@H]2Cc3ccc(F)c(C(=O)O)c3OB2O)c2ccc(O)c(O)c2)C(=O)C1=O [Example 211, (R)-3-((R)-2-(3,4-dihydroxyphenyl)-2-(4-ethyl-2,3-dioxopiperazine-1-carboxamido)acetamido)-7-fluoro-2-hydroxy-3,4-dihydro-2H-benzo[e][1,2]oxaborinine-8-carboxylic acid] | – | – | – | – | – | – | – | – | – | – | – | – | 16 to 32 (≈ 28.7 to 57.3 µM) | 4 to 8 (≈ 7.16 to 14.3 µM) | 16 to 32 (≈ 28.7 to 57.3 µM) | 16 to 32 (≈ 28.7 to 57.3 µM) | 16 to 32 (≈ 28.7 to 57.3 µM) | > 64 | 16 to 32 (≈ 28.7 to 57.3 µM) | 16 to 32 (≈ 28.7 to 57.3 µM)
